{"source": "patent US12605423B2", "about": "“Peptide inhibitors targeting methyltransfer mechanism of SARS-CoV-2” (United Arab Emirates University, priority 2021, dated 2026)", "key": {"IL-6": {"tested_on": "IL-6", "assay_type": "cell-based", "details": "NCIH1792 (H1792) human lung cells, 10 μM peptide, versus PBS control"}}, "note": "Entries after “also recorded” stand apart in the source; their conditions may differ.", "data": [{"smiles": "CSCC[C@H](NC(=O)[C@H](Cc1ccccc1)NC(=O)CNC(=O)[C@H](CO)NC(=O)CNC(=O)[C@H](CCCNC(=N)N)NC(=O)[C@H](CCCNC(=N)N)NC(=O)[C@H](CCCNC(=N)N)NC(=O)[C@H](CCC(N)=O)NC(=O)[C@H](CCCNC(=N)N)NC(=O)[C@H](CCCNC(=N)N)NC(=O)[C@H](CCCCN)NC(=O)[C@H](CCCCN)NC(=O)[C@H](CCCNC(=N)N)NC(=O)CNC(=O)[C@H](Cc1ccc(O)cc1)NC(C)=O)C(=O)N[C@@H](CC(=O)O)C(=O)N[C@@H](CC(C)C)C(=O)N[C@@H](CCCCN)C(=O)NCC(=O)N[C@@H](CCCCN)C(=O)N[C@@H](Cc1ccc(O)cc1)C(N)=O", "note": "[Peptide P3, FMDLKGKY]", "values": [{"measurement": "90% Effective Concentration (EC90)", "setting": "SARS-CoV-2", "value": 3.3, "unit": "µM"}, {"measurement": "EC90", "setting": "SARS-CoV-2", "value": 3.3, "unit": "µM"}, {"measurement": "IL-6 induction", "setting": "IL-6", "value": "not P2 nor P3; also recorded: does not stimulate IL-6"}]}]}
